Experimental data: patent US11578087B2, “Oxaborole esters and uses thereof” (priority 2016, dated 2023)
Where two headings read alike, the source gives them in different places.

Experiments:
[1] = system: IL3000 T. congolense (drug sensitive) strain; assay: In vitro Alamar Blue 72 h drug sensitivity assay for T. congolense; type: cell-based, Trypanosoma congolense; conditions: bloodstream form, 69 h + 3 h Resazurin, 34° C., read-out: IC50: I Org. Growth T. congolense 3 d
Summary of the method: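 IC50 values derive from 11-point curves averaged over at least three independent runs, with fluorescence read at 536 nm excitation and 588 nm emission. Resazurin was added for a final 3 h after 69 h compound exposure of bloodstream forms (HMI medium, 20% bovine serum, 34° C, 5% CO2).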

[2] = system: STIB719/ILRAD560 T. vivax (drug sensitive) strain; assay: Ex vivo Alamar Blue 48 h drug sensitivity assay for T. vivax; type: cell-based; conditions: Trypanosoma vivax, ex vivo bloodstream form from mouse, 45 hrs + 3 hrs Resazurin, 37° C., read-out: IC50: I Hypoxanthine Incorporation T. vivax 2 d

Compound	IC50 ([1]; Trypanosoma congolense, 72 h)	IC50 [2]	IC50 [1]
C[C@H](NC(=O)c1ccc2c(c1)B(O)OC2)C(=O)OCc1ccccc1 [Example 6-174, Benzyl (1-hydroxy-1,3-dihydrobenzo[c][1,2]oxaborole-6-carbonyl)-L-alaninate]	0.51 to 9.99 nM	50 to 2000 nM	–
COC(=O)[C@@H](CCc1ccccc1)NC(=O)c1ccc2c(c1)B(O)OC2 [Example 6-025, Methyl (R)-2-(1-hydroxy-1,3-dihydrobenzo[c][1,2]oxaborole-6-carboxamido)-4-phenylbutanoate]	10 to 5000 nM	> 2000 nM	–
COC(=O)[C@@H](Cc1ccccc1)NC(=O)c1ccc2c(c1)B(O)OC2 [Example 6-018, Methyl (1-hydroxy-1,3-dihydrobenzo[c][1,2]oxaborole-6-carbonyl)-D-phenylalaninate]	10 to 5000 nM	50 to 2000 nM	–
CC(C)c1c(C(=O)N[C@H](C(=O)OCc2ccc(F)cc2)C(C)C)ccc2c1B(O)OC2 [Example 6-062, 4-Fluorobenzyl (1-hydroxy-7-isopropyl-1,3-dihydrobenzo[c][1,2]oxaborole-6-carbonyl)-L-valinate]	0.51 to 9.99 nM	< 0.5 nM	–
Cc1c(C(=O)N[C@H](C(=O)OCc2ccc(F)cc2)[C@H](C)O)ccc2c1B(O)OC2 [Example 6-088, 4-Fluorobenzyl (1-hydroxy-7-methyl-1,3-dihydrobenzo[c][1,2]oxaborole-6-carbonyl)-L-allothreoninate]	0.51 to 9.99 nM	0.51 to 49.9 nM	–
COC(=O)[C@H](C)NC(=O)c1ccc2c(c1)B(O)OC2 [Example 6-016, Methyl (1-hydroxy-1,3-dihydrobenzo[c][1,2]oxaborole-6-carbonyl)-L-alaninate]	10 to 5000 nM	> 2000 nM	–
Cc1c(C(=O)N[C@H](C(=O)OCc2ccc(F)c(Cl)c2)C(C)C)ccc2c1B(O)OC2 [Example 6-051, 3-Chloro-4-fluorobenzyl (1-hydroxy-7-methyl-1,3-dihydrobenzo[c][1,2]oxaborole-6-carbonyl)-L-valinate]	< 0.5 nM	< 0.5 nM	–
COC(=O)[C@H](Cc1ccccc1)NC(=O)c1ccc2c(c1)B(O)OC2 [Example 6-026, Methyl (1-hydroxy-1,3-dihydrobenzo[c][1,2]oxaborole-6-carbonyl)-L-phenylalaninate]	–	50 to 2000 nM	0.51 to 9.99 nM
CC(C)c1c(C(=O)N[C@H](C(=O)OCc2ccc(S(C)(=O)=O)cc2)C(C)C)ccc2c1B(O)OC2 [Example 6-084, 4-(Methylsulfonyl)benzyl (1-hydroxy-7-isopropyl-1,3-dihydrobenzo[c][1,2]oxaborole-6-carbonyl)-L-valinate]	10 to 5000 nM	0.51 to 49.9 nM	–
Cc1c(C(=O)N[C@H](C(=O)OCc2ccc(F)cc2)c2ccccc2)ccc2c1B(O)OC2 [Example 6-045, 4-Fluorobenzyl (S)-2-(1-hydroxy-7-methyl-1,3-dihydrobenzo[c][1,2]oxaborole-6-carboxamido)-2-phenylacetate]	< 0.5 nM	< 0.5 nM	–
